Reference: patent publication US9073936B2, “Organic compounds” (INTRA-CELLULAR THERAPIES, INC., priority 2013, dated 2015)

Legend:
[1] = Metabolism rates in human liver microsomes (stability); type: in vitro ADME; details: pooled human liver microsomes, pH 7.5, 0.5 mg/ml protein, 1 μM test compound, NADPH, 37° C., read-out: T1/2 in human liver microsomes
Experimental: Pooled human liver microsomes (final protein concentration 0.5 mg/ml) are incubated with test compound (final concentration 1 μM) in the presence of a NADPH regenerating system. The final buffer composition is: 1 mM EDTA, 100 mM potassium phosphate pH 7.5. The reactions are initiated by addition of the cofactor NADPH, and terminated after a 0, 15, 30, 45 and 60 minute incubation at 37° C. by addition of cold acetonitrile containing the internal analysis standard. After centrifuging at 4000 rpm for 20 minutes at 4° C., the supernatant are transferred for analysis using HPLC/MS/MS to measure the disappearance of the test compound. The percentage of the test compound remaining over time is calculated relative to the zero time point. The intrinsic clearance rates were calculated based on percentage of compound remaining at the 15-60 min. time points.

PDE1 = PDE1 inhibition in vitro, IMAP phosphodiesterase assay; type: biochemical; details: cGMP-fluorescein substrate, read-out: IC50 (PDE1 inhibitory activity)
From the text: (§1) Phosphodiesterase 1 (PDE1) is a calcium/calmodulin dependent phosphodiesterase enzyme that converts cyclic guanosine monophosphate (cGMP) to 5′-guanosine monophosphate (5′-GMP). PDE1 can also convert a modified cGMP substrate, such as the fluorescent molecule cGMP-fluorescein, to the corresponding GMP-fluorescein. The generation of GMP-fluorescein from cGMP-fluorescein can be quantitated, using, for example, the IMAP (Molecular Devices, Sunnyvale, Calif.) immobilized-metal affinity particle reagent.
(§2) Briefly, the IMAP reagent binds with high affinity to the free 5′-phosphate that is found in GMP-fluorescein and not in cGMP-fluorescein. The resulting GMP-fluorescein-IMAP complex is large relative to cGMP-fluorescein. Small fluorophores that are bound up in a large, slowly tumbling, complex can be distinguished from unbound fluorophores, because the photons emitted as they fluoresce retain the same polarity as the photons used to excite the fluorescence.
(§3) In the phosphodiesterase assay, cGMP-fluorescein, which cannot be bound to IMAP, and therefore retains little fluorescence polarization, is converted to GMP-fluorescein, which, when bound to IMAP, yields a large increase in fluorescence polarization (Δmp). Inhibition of phosphodiesterase, therefore, is detected as a decrease in Δmp.
Materials: All chemicals are available from Sigma-Aldrich (St. Louis, Mo.) except for IMAP reagents (reaction buffer, binding buffer, FL-GMP and IMAP beads), which are available from Molecular Devices (Sunnyvale, Calif.).
Assay: The following phosphodiesterase enzymes may be used: 3′,5′-cyclic-nucleotide-specific bovine brain phosphodiesterase (Sigma, St. Louis, Mo.) and recombinant full length human PDE1A and PDE1B (r-hPDE1A and r-hPDE1B, respectively) which may be produced e.g., in HEK or SF9 cells by one skilled in the art. The PDE1 enzyme is reconstituted with 50% glycerol to 2.5 U/ml. One unit of enzyme will hydrolyze 1.0 μmole of 3′,5′-cAMP to 5′-AMP per min at pH 7.5 at 30° C. […] 99 μl of diluted enzyme solution is added into each well in a flat bottom 96-well polystyrene plate to which 1 μl of test compound dissolved in 100% DMSO is added. The test compounds are mixed and pre-incubated with the enzyme for 10 min at room temperature.
(§4) The plate is incubated at room temperature for 1 hour to allow IMAP binding to proceed to completion, and then placed in an Envision multimode microplate reader (PerkinElmer, Shelton, Conn.) to measure the fluorescence polarization (Δmp).
(§5) A decrease in GMP concentration, measured as decreased Δmp, is indicative of inhibition of PDE activity.

rats = test: Novel Object Recognition assay; type: in vivo; details: rat, PO, dosed 2 hours before T1, 24 h interval
From the text: To measure the cognition-enhancing effects of the compounds of the invention, the candidate compounds may be evaluated in a Novel Object Recognition (NOR) assay. This assay protocol is described in detail in Ennaceur et al., Behav. Brain Res. (1988) 31:47-59 and Prickaerts et al., Eur. J. Pharmacol. (1997) 337:125-136, the contents of each of which are incorporated by reference in their entirety. In this protocol, the rats are introduced to a chamber at time T1 and allowed to interrogate two identical “familiar objects” for six minutes. Twenty-four hours later, they are re-introduced to this chamber, where one of the familiar objects has been replaced with a novel object. The “discrimination index”, a measure of the time spent in close proximity to the novel over the familiar object, may then be measured. Since rodents will forget the original experiment at T1 within 4 hours, this test with a 24 h interval is a measure of strong cognitive enhancement.
This assay protocol can be modified in order to evaluate different phases of memory. There are three general phases of memory, namely, acquisition, consolidation and retrieval. In this modified protocol, the rats may be dosed with the candidate compound two hours before T1 and tested 24 h later without additional dosing. This is a test of the acquisition process. […]

C57BL/6 mice = test: Haloperidol induced catalepsy model (bar grip test); type: in vivo, mouse; details: haloperidol 3 mg/Kg PO, step down latency
From the text: To evaluate the potential beneficial effects to motor defects present in schizophrenics treated with typical and atypical antipsychotic agents and in Parkinson's disease patients, the compounds of the invention may be tested in a reversal of catalepsy model in which motor freezing, or catalepsy, is induced by potent dopamine D2 receptor antagonists such as haloperidol or risperidone. The method uses the “bar grip test”, in which the front paws of the mouse are placed so as to grip a 3 mm-diameter, suspended wooden bar. A “step down latency” is measured by recording the time until the mouse removes its paws from the wooden bar to the floor surface. Catalepsy is a freezing of the musculature that prevents the mouse from moving off the bar. […]
A catalepsy score is recorded for each mouse at 2, 3, 4, and 6 hours after administration of drugs. […] The latency until the mouse steps both paws down from the bar to the floor surface (i.e., step down latency) is recorded up to 120 sec. […] If none of the 10 attempts are beyond 10 sec, the longest duration recorded is used as the catalepsy score. Otherwise, the initial cataleptic duration (>10 sec) is recorded during the 120 sec testing time. Mean step down latency is calculated for each treatment group.

[2] = target: recombinant full length human PDE1A (r-hPDE1A) (Homo sapiens (Human), UniProt P54750); test: PDE1 inhibition in vitro, IMAP phosphodiesterase assay (r-hPDE1A); type: biochemical
From the text: as §1, §2, §3
(§6) Materials: All chemicals are available from Sigma-Aldrich (St. Louis, Mo.) except for IMAP reagents (reaction buffer, binding buffer, FL-GMP and IMAP beads), which are available from Molecular Devices (Sunnyvale, Calif.). […]
as §4, with “The reaction is incubated in dark at room temperature for 15 min. […] The” for “The”
as §5

[3] = target: recombinant full length human PDE1B (r-hPDE1B) (Homo sapiens (Human), UniProt Q01064); test: PDE1 inhibition in vitro, IMAP phosphodiesterase assay (r-hPDE1B); type: biochemical
From the text: as §1, §2, §3, §6
as §4, with “The reaction is incubated in dark at room temperature for 15 min. […] The” for “The”
as §5

half-life at 1 μM [1]	IC50 (PDE1)	Ki [2]	Ki [3]	SMILES	minimal effective dose, Novel Object Recognition (rats)	minimal effective dose, catalepsy model (C57BL/6 mice)
–	≤ 5 nM	0.5 nM	4 nM	CC(O)c1ccc(Cn2nc3c(c2Nc2ccc(F)cc2)C(=O)N(C)C2=NC(C)(C)CN23)cc1 (stereo not drawn) [Example 2, 7,8-Dihydro-2-(4-(1-hydroxyethyl)benzyl)-3-(4-fluorophenylamino)-5,7,7-trimethyl-[2H]-imidazo-[1,2-a]pyrazolo[4,3-e]pyrimidin-4(5H)-one]	–	–
78 min	≤ 5 nM	0.3 nM	4 nM	CC(=O)c1ccc(Cn2nc3c(c2Nc2ccc(F)c(F)c2)C(=O)N(C)C2=NC(C)(C)CN23)cc1 [Example 3, 7,8-Dihydro-2-(4-acetylbenzyl)-3-(3,4-difluorophenylamino)-5,7,7-trimethyl-[2H]-imidazo-[1,2-a]pyrazolo[4,3-e]pyrimidin-4(5H)-one]	–	–
67 min	≤ 5 nM	0.1 nM	0.4 nM	CC(=O)c1ccc(Cn2nc3c(c2Nc2ccc(F)c(C)c2)C(=O)N(C)C2=NC(C)(C)CN23)cc1 [Example 4, 7,8-Dihydro-2-(4-acetylbenzyl)-3-(4-fluoro-3-methylphenylamino)-5,7,7-trimethyl-[2H]-imidazo-[1,2-a]pyrazolo[4,3-e]pyrimidin-4(5H)-one]	–	–

SMILES	half-life at 1 μM [1]	IC50 (PDE1)	Ki [2]	Ki [3]	minimal effective dose, Novel Object Recognition (rats)	minimal effective dose, catalepsy model (C57BL/6 mice)
CC(=O)c1ccc(Cn2nc3c(c2Nc2ccc(F)cc2)C(=O)N(C)C2=NC(C)(C)CN23)cc1 [Example 1, 7,8-Dihydro-2-(4-acetylbenzyl)-3-(4-fluorophenylamino)-5,7,7-trimethyl-[2H]-imidazo-[1,2-a]pyrazolo[4,3-e]pyrimidin-4(5H)-one]	171 min	≤ 5 nM	–	–	0.1 mg/kg	0.1 mg/kg
